ChEMBL document CHEMBL1142769, “A preliminary study of the metabolic stability of a series of benzoxazinone derivatives as potent neuropeptide Y5 antagonists” (Bioorg Med Chem Lett, 2005)

Experiments:
[1] = Half life period after 1 hour in Rat liver microsomes at 37 degree C an incubation concentration of 10 uM
[2] = Metabolic stability after 1 hour in human liver microsomes at 37 degree C an incubation concentration of 10 uM
[3] = Metabolic stability after 1 hour in Rat liver microsomes at 37 degree C an incubation concentration of 10 uM
[4] = Inhibitory concentration required for Metabolic stability after 1 hour at an incubation concentration of 10 uM; format: ADME
[5] = Half life period after 1 hour in human liver microsomes at 37 degree C an incubation concentration of 10 uM

SMILES | half-life at 1 h, 10 µM ([1]; microsomes) | remaining at 1 h, 10 µM [2] | remaining at 1 h, 10 µM [3] | IC50 [4] | half-life at 1 h, 10 µM ([5]; microsomes) | half-life at 1 h, 10 µM ([1]; liver microsomes) | half-life at 1 h, 10 µM ([5]; liver microsomes)
O=C(CN1CCC(N2C(=O)OCc3ccc(Cl)cc32)CC1)Nc1ccc2sc3ccccc3c2c1 | 32.7 min | 19.6% | 24% | 135 nM | 28.4 min |  | 
O=C(CN1CCC(N2C(=O)OCc3c(F)cccc32)CC1)Nc1ccc2[nH]c3ccccc3c2c1 |  |  |  | 461 nM |  | 19.3 min | 95 min
